Laboratory results reported in article PMC9469100, “Turning Nonselective Inhibitors of Type I Protein Arginine Methyltransferases into Potent and Selective Inhibitors of Protein Arginine Methyltransferase 4 through a Deconstruction–Reconstruction and Fragment-Growing Approach” (Journal of Medicinal Chemistry, 2022).

Tests used:
[1] = molecular target: T1, DOT1L (Homo sapiens, UniProt Q8TEK3); experiment: HotSpot KMT activity assay, DOT1L; type: biochemical; conditions: mean ± SD, two experiments, read-out: % enzyme residual activ. after treatment with 12h, 1 µM, DOT1L
T1 construct: DOT1L (residues 1–416); N-terminal GST-tag; GST (N); purchased Reaction Biology Corporation
Experimental: (§1) Then, ^3H-SAM (final concentration 1 μM) was delivered into the reaction mixture to initiate the reaction. After incubation for 60 min at 30 °C, the reaction mixture was delivered to filter-paper for detection (as assessed by scintillation). […] No inhibitor control (DMSO) was considered as 100% enzyme activity. Data were analyzed using Excel and GraphPad Prism 6.0 software (GraphPad Software Inc., San Diego, CA). Values obtained for each compound are mean ± SD determined for two separate experiments.

[2] = tested on: PRMT4 (HEK293T cells); experiment: Western blot with pan-PRMT4 substrate antibody, HEK293T; conditions: HEK293T; 10 and 50 μM; 24 h; PRMT4sub immunoblot
Experimental: (§2) HEK293T or MCF7 cells were treated with different compounds and then harvested and lysed at the indicated time, and the cell lysates were applied to Western blot analysis. In brief, cells were harvested and washed three times with cold PBS, and then cell lysis buffer (50 mM Tris-HCl, pH 7.5, 150 mM NaCl, 1% Nonidet P-40, 0.1% SDS, 1% sodium deoxycholate, 5 mM EDTA, supplemented with proteinase inhibitor mixture) was added to obtain the cell lysates. Cell debris was pelleted and discarded, whereas the supernatant was kept. Protein samples were added with SDS loading buffer and boiled for 10 min, followed by SDS-PAGE. Then the proteins were transferred to a PVDF membrane. The membrane was blocked with 5% fat-free milk for 1 h at room temperature and then incubated with primary antibodies (antihistone H3, Abcam, #ab18521; pan-PRMT4 substrate antibody, made in-house) at 4 °C overnight. The blot was then washed three times with PBST and incubated with secondary antibodies for 1 h at room temperature. After being washed three times with PBST, the membrane was incubated with ECL reagent, and the signals were detected on X-ray film.
(§3) The anti-PRMT4 substrate antibody was raised against the R388 site in the transcription factor NFIB.

[3] = molecular target: T2, SUV39H2 (Homo sapiens, UniProt Q9H5I1); experiment: HotSpot KMT activity assay, SUV39H2; type: biochemical; conditions: 1 µM; mean ± SD, two experiments; read-out: % enzyme residual activ. after treatment with 12h, 1 µM, SUV39H2
T2 construct: SUV39H2 (residues 46–410, C-terminus); N-terminal fusion protein with a C-terminal His-tag; His (C); purchased Reaction Biology Corporation
Experimental: as §1

[4] = molecular target: T3, EZH2 complex (Homo sapiens, UniProt Q15910); experiment: HotSpot KMT activity assay, EZH2; type: biochemical; conditions: mean ± SD, two experiments, read-out: % enzyme residual activ. after treatment with 12h, 1 µM, EZH2
T3 construct: including EZH2 residues 2–746, AEBP2 2–517; His (N); purchased Reaction Biology Corporation
Experimental: as §1

[5] = molecular target: G9a (Homo sapiens, UniProt Q96KQ7); experiment: HotSpot KMT activity assay, G9a; type: biochemical; conditions: mean ± SD, two experiments, read-out: % enzyme residual activ. after treatment with 12h, 1 µM, G9a
Experimental: as §1

[6] = molecular target: T4, ASH1L (Homo sapiens, UniProt Q9NR48); experiment: HotSpot KMT activity assay, ASH1L; type: biochemical; conditions: 1 µM; mean ± SD, two experiments; read-out: % enzyme residual activ. after treatment with 12h, 1 µM, ASH1L
T4 construct: ASH1L (residues 2046–2330, with an N-terminal His-tag); His (N); purchased Reaction Biology Corporation
Experimental: as §1

[7] = molecular target: T5, SET7/9 (Homo sapiens, UniProt Q8WTS6); experiment: HotSpot KMT activity assay, SET7/9; type: biochemical; conditions: 1 µM; mean ± SD, two experiments; read-out: % enzyme residual activ. after treatment with 12h, 1 µM, SET7/9
T5 construct: SET7/9 (residues 2–366, C-terminus); with a N-terminal GST-tag and a C-terminal His-tag; GST (N); His (C); purchased Reaction Biology Corporation
Experimental: as §1

[8] = tested on: PRMT4 (MCF7 cells); experiment: Western blot with pan-PRMT4 substrate antibody, MCF7; conditions: 12h 10 and 50 μM, TP-064 10 μM; 4 and 8 days; PRMT4sub immunoblot
Experimental: as §2, §3

[9] = molecular target: PRMT1 (Homo sapiens, UniProt Q99873); experiment: AlphaLISA PRMT1 activity assay (H4R3me)
Chain of PRMT1 (Q99873 whole entry): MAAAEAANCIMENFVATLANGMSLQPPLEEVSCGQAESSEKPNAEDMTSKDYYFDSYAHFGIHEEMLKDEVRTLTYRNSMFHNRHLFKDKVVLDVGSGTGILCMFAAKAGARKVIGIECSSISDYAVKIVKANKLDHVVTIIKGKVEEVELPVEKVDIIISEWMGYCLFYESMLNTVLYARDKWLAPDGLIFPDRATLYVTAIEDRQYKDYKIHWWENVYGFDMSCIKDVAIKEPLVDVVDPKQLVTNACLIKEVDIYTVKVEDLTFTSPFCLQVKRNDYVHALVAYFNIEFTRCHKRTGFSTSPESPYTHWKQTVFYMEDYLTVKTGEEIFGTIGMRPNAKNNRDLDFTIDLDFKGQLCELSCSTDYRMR
Experimental: Then, we resolved to determine their effect on the catalytic activity of human recombinant PRMT1, chosen as representative of class I PRMTs. […] PRMT1 activity assays were performed by taking advantage of the AlphaLISA homogeneous proximity assay.
The reaction was incubated for 60 min, and then it was stopped by the addition of 5 μL of antimethyl-histone H4 arginine 3 (H4R3me) AlphaLISA acceptor beads (PerkinElmer, #AL150) (final concentration, 20 μg/mL) diluted in Epigenetic Buffer 1X (PerkinElmer, #AL008).
For each incubation step, the OptiPlate was sealed with protective foil to prevent evaporation and contamination. Donor and acceptor beads were added in subdued light.
The 100% activity (positive control) was reached using the vehicle (DMSO) while the 0% activity (negative control) was obtained without the protein. Data were analyzed using Excel software. Values obtained for each compound are mean ± SD determined for three separate experiments.

T5 sequence (Q8WTS6 2-366): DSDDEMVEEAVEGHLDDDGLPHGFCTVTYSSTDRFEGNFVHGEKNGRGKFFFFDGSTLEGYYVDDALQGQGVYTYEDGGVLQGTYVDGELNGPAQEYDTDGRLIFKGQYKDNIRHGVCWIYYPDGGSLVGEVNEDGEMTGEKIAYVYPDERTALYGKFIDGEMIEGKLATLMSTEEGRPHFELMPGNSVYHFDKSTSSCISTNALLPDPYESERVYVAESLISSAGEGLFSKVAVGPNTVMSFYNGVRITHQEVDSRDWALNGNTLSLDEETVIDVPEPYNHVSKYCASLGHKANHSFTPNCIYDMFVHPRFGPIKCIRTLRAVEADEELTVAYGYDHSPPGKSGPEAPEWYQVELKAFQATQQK
T2 sequence (Q9H5I1 46-410): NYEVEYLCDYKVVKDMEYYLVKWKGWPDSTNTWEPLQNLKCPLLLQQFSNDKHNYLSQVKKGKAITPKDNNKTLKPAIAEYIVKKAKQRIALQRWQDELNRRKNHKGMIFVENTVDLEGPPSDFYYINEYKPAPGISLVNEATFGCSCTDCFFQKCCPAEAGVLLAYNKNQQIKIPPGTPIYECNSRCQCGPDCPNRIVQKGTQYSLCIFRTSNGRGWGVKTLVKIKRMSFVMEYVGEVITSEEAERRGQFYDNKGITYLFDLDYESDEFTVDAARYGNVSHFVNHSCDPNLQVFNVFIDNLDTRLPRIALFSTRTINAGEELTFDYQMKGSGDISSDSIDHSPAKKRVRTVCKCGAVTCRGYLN
T1 sequence (Q8TEK3 1-416): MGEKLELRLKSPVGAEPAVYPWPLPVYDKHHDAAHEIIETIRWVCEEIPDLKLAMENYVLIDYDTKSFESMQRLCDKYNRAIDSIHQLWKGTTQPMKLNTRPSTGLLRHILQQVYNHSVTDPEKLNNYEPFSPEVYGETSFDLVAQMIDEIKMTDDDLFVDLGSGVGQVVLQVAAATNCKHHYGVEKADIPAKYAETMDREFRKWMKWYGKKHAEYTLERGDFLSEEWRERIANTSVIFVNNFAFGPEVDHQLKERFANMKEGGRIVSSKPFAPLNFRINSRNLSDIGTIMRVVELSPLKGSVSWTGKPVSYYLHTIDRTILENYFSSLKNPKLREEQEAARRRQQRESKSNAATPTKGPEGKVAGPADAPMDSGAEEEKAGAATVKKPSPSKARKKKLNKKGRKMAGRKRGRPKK
T3 sequence (Q15910 2-746): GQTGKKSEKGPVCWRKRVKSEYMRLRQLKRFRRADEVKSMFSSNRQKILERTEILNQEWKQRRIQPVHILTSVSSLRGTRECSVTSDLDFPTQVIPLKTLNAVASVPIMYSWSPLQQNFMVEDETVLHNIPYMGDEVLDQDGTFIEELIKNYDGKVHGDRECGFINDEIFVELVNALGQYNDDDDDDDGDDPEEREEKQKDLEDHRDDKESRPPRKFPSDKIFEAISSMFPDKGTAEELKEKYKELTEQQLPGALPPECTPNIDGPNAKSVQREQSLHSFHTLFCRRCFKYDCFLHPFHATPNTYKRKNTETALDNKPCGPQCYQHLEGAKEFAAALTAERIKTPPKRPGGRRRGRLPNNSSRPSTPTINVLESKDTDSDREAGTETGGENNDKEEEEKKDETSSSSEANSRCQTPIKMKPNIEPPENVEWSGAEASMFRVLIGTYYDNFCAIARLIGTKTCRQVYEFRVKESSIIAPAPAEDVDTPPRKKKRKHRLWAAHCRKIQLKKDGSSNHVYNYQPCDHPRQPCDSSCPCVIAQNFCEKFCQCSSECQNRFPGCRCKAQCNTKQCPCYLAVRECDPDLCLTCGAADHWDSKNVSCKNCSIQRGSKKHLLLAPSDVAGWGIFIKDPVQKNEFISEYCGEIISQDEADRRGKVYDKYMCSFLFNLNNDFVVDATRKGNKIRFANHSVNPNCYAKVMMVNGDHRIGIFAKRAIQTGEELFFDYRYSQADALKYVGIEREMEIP
T3 sequence (Q6ZN18 2-517 partner limits assumed): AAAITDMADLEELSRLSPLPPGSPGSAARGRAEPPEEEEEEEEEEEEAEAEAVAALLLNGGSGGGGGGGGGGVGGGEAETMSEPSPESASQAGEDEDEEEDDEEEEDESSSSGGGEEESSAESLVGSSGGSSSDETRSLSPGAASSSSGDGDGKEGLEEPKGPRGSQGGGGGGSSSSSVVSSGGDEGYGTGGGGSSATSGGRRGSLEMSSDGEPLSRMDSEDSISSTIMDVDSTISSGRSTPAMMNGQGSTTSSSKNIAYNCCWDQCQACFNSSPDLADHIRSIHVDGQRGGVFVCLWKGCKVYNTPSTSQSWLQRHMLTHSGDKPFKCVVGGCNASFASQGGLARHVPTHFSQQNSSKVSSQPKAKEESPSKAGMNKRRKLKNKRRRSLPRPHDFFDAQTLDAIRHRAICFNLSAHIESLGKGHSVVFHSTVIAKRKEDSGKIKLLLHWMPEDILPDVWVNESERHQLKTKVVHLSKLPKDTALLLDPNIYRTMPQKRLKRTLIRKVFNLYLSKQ
T3 sequence (O75530 2-441 partner limits assumed): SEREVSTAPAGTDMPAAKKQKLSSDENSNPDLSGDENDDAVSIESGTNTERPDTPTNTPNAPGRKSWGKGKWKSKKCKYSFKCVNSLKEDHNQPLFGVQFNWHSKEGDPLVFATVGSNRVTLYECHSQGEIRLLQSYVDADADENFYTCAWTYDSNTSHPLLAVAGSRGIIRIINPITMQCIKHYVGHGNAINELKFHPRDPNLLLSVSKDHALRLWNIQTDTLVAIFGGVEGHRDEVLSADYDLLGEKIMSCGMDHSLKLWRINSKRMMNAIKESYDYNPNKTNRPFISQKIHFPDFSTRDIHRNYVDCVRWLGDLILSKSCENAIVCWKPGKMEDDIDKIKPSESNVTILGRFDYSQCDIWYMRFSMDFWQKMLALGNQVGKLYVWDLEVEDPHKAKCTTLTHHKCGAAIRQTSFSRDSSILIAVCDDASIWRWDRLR
T3 sequence (Q09028 2-425 partner limits assumed): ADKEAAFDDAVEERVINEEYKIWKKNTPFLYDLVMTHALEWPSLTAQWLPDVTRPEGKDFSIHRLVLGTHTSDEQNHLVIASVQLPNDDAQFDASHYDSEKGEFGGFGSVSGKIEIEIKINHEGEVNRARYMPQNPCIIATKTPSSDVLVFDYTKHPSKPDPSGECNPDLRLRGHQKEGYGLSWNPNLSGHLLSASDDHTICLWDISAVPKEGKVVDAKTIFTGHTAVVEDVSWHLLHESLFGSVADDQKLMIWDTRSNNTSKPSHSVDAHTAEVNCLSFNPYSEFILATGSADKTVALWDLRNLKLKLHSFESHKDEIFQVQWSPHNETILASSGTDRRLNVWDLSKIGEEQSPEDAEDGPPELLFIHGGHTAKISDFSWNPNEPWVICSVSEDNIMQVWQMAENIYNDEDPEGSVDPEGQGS
T3 sequence (Q15022 2-739 partner limits assumed): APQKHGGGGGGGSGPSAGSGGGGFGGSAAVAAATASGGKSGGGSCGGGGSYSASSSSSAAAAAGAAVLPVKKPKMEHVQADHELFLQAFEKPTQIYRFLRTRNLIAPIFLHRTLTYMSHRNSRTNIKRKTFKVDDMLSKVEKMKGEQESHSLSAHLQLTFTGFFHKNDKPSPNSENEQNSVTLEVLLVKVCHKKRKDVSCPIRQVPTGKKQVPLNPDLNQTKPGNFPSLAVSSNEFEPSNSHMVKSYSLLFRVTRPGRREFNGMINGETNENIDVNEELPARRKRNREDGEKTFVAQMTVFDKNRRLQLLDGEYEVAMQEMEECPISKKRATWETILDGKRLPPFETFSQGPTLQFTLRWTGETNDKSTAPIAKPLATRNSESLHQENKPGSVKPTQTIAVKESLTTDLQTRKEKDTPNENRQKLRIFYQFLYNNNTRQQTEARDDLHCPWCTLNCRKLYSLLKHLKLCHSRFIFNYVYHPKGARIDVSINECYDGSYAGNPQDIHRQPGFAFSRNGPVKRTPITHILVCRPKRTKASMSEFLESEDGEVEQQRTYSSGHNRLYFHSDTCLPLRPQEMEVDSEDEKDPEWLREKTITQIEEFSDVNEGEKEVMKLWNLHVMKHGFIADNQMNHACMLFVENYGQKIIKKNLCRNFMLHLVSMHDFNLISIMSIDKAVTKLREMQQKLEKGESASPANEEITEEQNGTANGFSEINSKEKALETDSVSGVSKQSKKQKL

| IC50 [9] [µM] | SMILES | remaining activity at 1 µM [1] [%] | cellular level of arginine methylation catalyzed by PRMT4 [2] | remaining activity at 1 µM [3] [%] | remaining activity at 1 µM [4] [%] | remaining activity at 1 µM [5] [%] | remaining activity at 1 µM [6] [%] | remaining activity at 1 µM [7] [%] | arginine methylation levels in MCF7 cells [8] |
| --- | --- | --- | --- | --- | --- | --- | --- | --- | --- |
| – | COC(=O)c1cc(O)c2cc(NC(=O)NCCCCNC(=N)NC/C=C/[C@H]3O[C@@H](n4cnc5c(N)ncnc54)[C@H](O)[C@@H]3O)ccc2c1 [12h, Methyl 6-(3-(4-(3-((E)-3-((2R,3S,4R,5R)-5-(6-Amino-9H-purin-9-yl)-3,4-dihydroxytetrahydrofuran-2-yl)allyl)guanidino)butyl)ureido)-4-hydroxy-2-naphthoate] | 97.7 ± 3.48 | able to reduce the activity of PRMT4 in a concentration-dependent way | 114 ± 1.92 | 84.4 ± 5.51 | 102 ± 1.67 | 90.76 ± 0.13 | 112 ± 2.25 | evident reduction |
| 0.3 | COC(=O)c1cc(O)c2cc(NC(=O)NCCCCCNC(=N)NC[C@H]3O[C@@H](n4cnc5c(N)ncnc54)[C@H](O)[C@@H]3O)ccc2c1 [12c, Methyl 6-(3-(5-(3-(((2R,3S,4R,5R)-5-(6-Amino-9H-purin-9-yl)-3,4-dihydroxytetrahydrofuran-2-yl)methyl)guanidino)pentyl)ureido)-4-hydroxy-2-naphthoate] | – | – | – | – | – | – | – | – |
